Assays:
Sprague Dawley rats [1] = experiment: Coronary artery ligation model, delayed cardioprotection, Tpo given 24 hours before ischemia; assay type: in vivo, rat; details: Tpo 0.05 micrograms/kg 24 hours before 30 min regional ischemia, 3 hours reperfusion
Experimental: Animals used in this study were adult male Sprague Dawley rats (200-350 g, generally 300 g). Animals were housed under standard conditions and allowed to feed ad lib.
Rats were anesthetized with sodium pentobarbital (50 mg/kg i.p.). Heparin was administered (150 U/kg i.p.) to prevent the formation of a thrombus in the coronary vasculature. A myocardial infarction was produced via the ligation of the left main artery using 6-0 prolene suture (See, e.g., Clements-Jewery, et al., supra, 2002; Farkas et al., supra, 2002). The left main coronary artery was identified and ligated with a 5-0 Prolene suture threaded through a polyethylene tube to act as an occluder. A control group included sham operated hearts in which only a suture was passed around the left main coronary artery was performed.
Animals were treated with Tpo (0.05 micrograms/kg) administered intraperitoneally and the animals allowed to recover for 24 hours prior to the onset of ischemia. Regional ischemia and reperfusion were induced by tightening the occluder and by releasing it. Hearts were then subjected to 30 minutes regional ischemia followed by 3 hours reperfusion. […]
(§1) The heart was sectioned in 2 mm segments from apex to atrio-ventricular groove in a transverse fashion. Each segment was recorded and placed in formalin. […] The percentage of infarction of each slide was expressed as a percentage of the entire area of the heart.

Sprague Dawley rats [2] = experiment: Coronary artery ligation model, Tpo given after the onset of ischemia; assay type: in vivo, rat; details: Tpo 0.05 μg/kg 15 min prior to reperfusion (15 min after onset of 30 min regional ischemia)
Experimental: FIG. 9 is a graphic depiction of the effect of Tpo (0.05 μg/kg) on myocardial infarct size in vivo (as percentage % of area at risk) when administered intravenously 15 minutes after the onset of 30 minutes regional myocardial ischemia in vivo induced by suture ligation of the left main coronary artery and 3 hours reperfusion. *=P<0.05, with Tpo vs. without Tpo (control).
Animals used in this study were adult male Sprague Dawley rats (200-350 g, generally 300 g). Animals were housed under standard conditions and allowed to feed ad lib. The Animal Care and Use Committee of the Medical College of Wisconsin approved all procedures performed in accordance with the regulations adopted by the National Institutes of Health.
A myocardial infarction was produced via the ligation of the left main artery using 6-0 prolene suture (See, e.g., Clements-Jewery, et al., supra, 2002; Farkas, et al., supra, 2002). Rats were anesthetized with sodium pentobarbital (50 mg/kg i.p.). The left main coronary artery was identified and ligated with a 5-0 Prolene suture threaded through a polyethylene tube to act as an occluder. […]
as §1

## Thrombopoietin [Tpo]
Sprague Dawley rats [1]
  Myocardial infarct size: decrease
Sprague Dawley rats [2]
  Myocardial infarct size: decrease

— US8518883B2, “Method of reducing deleterious effects of ischemia by administration of a thrombopoietin receptor ligand” (MCW Research Foundation, Inc., priority 2006, dated 2013)
